Reference: patent publication US8546443B2, “Benzylic oxindole pyrimidines” (Boehringer Ingelheim International GmbH, priority 2010, dated 2013)

Assays:
[1] = target: T1, cytoplasmic kinase domain of human IGF-1R (IGF-1R-GST) (Homo sapiens, UniProt P08069); test: Insulin-like growth factor-1 receptor (IGF-1R) kinase assay (DELFIA); type: biochemical; conditions: IGF-1R-GST kinase activity, read-out: IGF1R IC50
T1 construct: cytoplasmic kinase domain of human IGF-1R (amino acids 964-1370); GST (glutathione-S-transferase); made in house; host or cells: High Five insect cells (Invitrogen)
Outline: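 GST-tagged IGF-1R cytoplasmic kinase domain phosphorylates pEY with biotinylated pEY for 40 min at RT; EDTA stop. Product captured on streptavidin, detected with europium anti-phosphotyrosine antibody by DELFIA time-resolved fluorescence; IC50 from inhibition curves.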

[2] = tested on: TC-71 (Ewing's sarcoma) cells; test: Cell proliferation assay, TC-71 (Alamar Blue); type: cell-based; conditions: 72 h with compound, EC50 ranges as class symbols
Method: Cell Proliferation Assays
Compounds were tested for their anti-proliferative effects in the TC-71 (Ewing's sarcoma) and HCT 116 (colorectal carcinoma) cancer cell lines in vitro. Published scientific data has described that interference with the Insulin-like Growth Factor-1 Receptor (IGF-1R) signaling pathway reduces the proliferation of TC-71 cells. Therefore TC-71 cells served as a positive control cell line for monitoring the activity of compounds against IGF-1R-mediated cell proliferation. […] Therefore the HCT 116 cell line served as a negative control.
2000 TC-71 cells or 1000 HCT 116 cells were seeded per well in 180 μL IMDM+10% foetal calf serum (FCS)+ penicillin/streptomycin into 96-well microtitre plates. The plates were placed in a cell culture incubator (37° C. in a humidified atmosphere of […]/5 CO2) overnight. The following day, serial dilutions of compounds, prepared in duplicates, were transferred onto the cell layers (controls without compound). The cells were cultivated for a further 72 h in the cell culture incubator. 20 μL of Alamar Blue™ (Serotec Ltd, Düsseldorf, Germany) was added to each well and the plates incubated for 7 h in the cell culture incubator. Fluorescence (extinction wavelength of 544 nm and emission at 590 nm) was then measured and the normalized data fitted by iterative calculation with a sigmoidal curve analysis program (Graph Pad Prism) with a variable Hill slope to determine the IC50 values.

T1 sequence (P08069 964-1367 limits assumed): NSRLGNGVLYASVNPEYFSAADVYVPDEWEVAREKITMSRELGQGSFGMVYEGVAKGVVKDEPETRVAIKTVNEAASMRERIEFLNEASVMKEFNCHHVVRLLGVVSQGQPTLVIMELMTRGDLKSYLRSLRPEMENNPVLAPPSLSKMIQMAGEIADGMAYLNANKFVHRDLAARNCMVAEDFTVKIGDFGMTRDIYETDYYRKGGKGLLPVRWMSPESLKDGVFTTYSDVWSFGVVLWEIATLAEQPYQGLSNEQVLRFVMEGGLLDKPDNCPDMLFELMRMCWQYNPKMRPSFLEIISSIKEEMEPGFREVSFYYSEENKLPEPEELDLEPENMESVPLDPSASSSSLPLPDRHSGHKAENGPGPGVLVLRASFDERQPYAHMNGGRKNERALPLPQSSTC

Structure (SMILES) | IC50 [1] | EC50 [2]
Cc1cc([C@@H]2CCCN(CC(C)(C)O)C2)ccc1Nc1ncc(Br)c(NCc2cccc3c2C(C)(C)C(=O)N3)n1 [Example I-320] | 0.9 nM | < 50 nM
COc1cc(N2CCN(CC(C)(C)O)CC2)ccc1Nc1ncc(Br)c(NCc2cccc3c2C(C)(C)C(=O)N3)n1 [Example I-321] | 2 nM | < 50 nM
COc1cc(C2CCN(CC(C)(C)O)CC2)ccc1Nc1ncc(Br)c(NCc2cccc3c2C(C)(C)C(=O)N3)n1 [Example I-323] | 0.9 nM | < 50 nM
Cc1cc(Nc2ncc(Br)c(NCc3cccc4c3C(C)(C)C(=O)N4)n2)ccc1C1CCN(CC(C)(C)O)CC1 [Example I-324] | 0.1 nM | < 50 nM
Cc1cc(C2CCN(CC(O)C(F)(F)F)CC2)ccc1Nc1ncc(Cl)c(NCc2cccc3c2C(C)(C)C(=O)N3)n1 (centres unmarked) [Example I-326] | 2 nM | 50 to 250 nM
Cc1cc(N2CCN(C)CC2)ccc1Nc1ncc(Cl)c(NCc2cccc3c2C(C)(C)C(=O)N3)n1 [Example I-330] | 3 nM | < 50 nM
COc1cc(C2CCN(CC(C)(C)O)CC2)ccc1Nc1ncc(Cl)c(NCc2cccc3c2C(C)(C)C(=O)N3)n1 [Example I-331] | 1 nM | < 50 nM
Cc1cc(C2CCN(C)CC2)ccc1Nc1ncc(Cl)c(NCc2cccc3c2C(C)(C)C(=O)N3)n1 [Example I-332] | 1 nM | < 50 nM
Cc1cc(Nc2ncc(Cl)c(NCc3cccc4c3C(C)(C)C(=O)N4)n2)ccc1C1CCN(CC(C)(C)O)CC1 [Example I-334] | 0.4 nM | < 50 nM
COc1cc(N2CCN(CC(C)(C)O)CC2)ccc1Nc1ncc(Cl)c(NCc2cccc3c2C(C)(C)C(=O)N3)n1 [Example I-335] | 3 nM | < 50 nM
Cc1cc(N2CCN(CC(C)(C)O)CC2)ccc1Nc1ncc(Cl)c(NCc2cccc3c2C(C)(C)C(=O)N3)n1 [Example I-336] | 4 nM | 50 to 250 nM
Cc1cc(Nc2ncc(Cl)c(NCc3cccc4c3C(C)(C)C(=O)N4)n2)c(F)cc1C1CCN(CC(C)(C)O)CC1 [Example I-337] | 9 nM | 250 to 3000 nM
Cc1c(Nc2ncc(Cl)c(NCc3cccc4c3C(C)(C)C(=O)N4)n2)ccc(C2CCN(CC(C)(C)O)CC2)c1C [Example I-339] | 2.1 nM | < 50 nM
CC(C)(O)CN1CCC(c2ccc(Nc3ncc(Cl)c(NCc4cccc5c4C(C)(C)C(=O)N5)n3)c(OC(F)(F)F)c2)CC1 [Example I-340] | 11 nM | 50 to 250 nM
CC(C)(O)CN1CCC(c2ccc(Nc3ncc(Cl)c(NCc4cccc5c4C(C)(C)C(=O)N5)n3)c3c2OCO3)CC1 [Example I-341] | 0.9 nM | < 50 nM

Further lines, results first:

IC50 [1] | EC50 [2] | Structure (SMILES)
3 nM | < 50 nM | CC(C)(O)CN1CCC(c2ccc(Nc3ncc(Cl)c(NCc4cccc5c4C(C)(C)C(=O)N5)n3)c(OC(F)F)c2)CC1 [Example I-342]
0.8 nM | < 50 nM | COCCN1CCC(c2ccc(Nc3ncc(C(F)(F)F)c(NCc4cccc5c4C(C)(C)C(=O)N5)n3)c(C)c2)CC1 [Example I-352]
2 nM | < 50 nM | COCCN1CCN(c2ccc(Nc3ncc(C(F)(F)F)c(NCc4cccc5c4C(C)(C)C(=O)N5)n3)c(OC)c2)CC1 [Example I-353]
0.5 nM | 250 to 3000 nM | Cc1cc(C2CCN(CCO)CC2)ccc1Nc1ncc(C(F)(F)F)c(NCc2cccc3c2C(C)(C)C(=O)N3)n1 [Example I-355]
0.3 nM | < 50 nM | COCCN1CCC[C@@H](c2ccc(Nc3ncc(Br)c(NCc4cccc5c4C(C)(C)C(=O)N5)n3)c(C)c2)C1 [Example I-362]
2 nM | 50 to 250 nM | COCCN1CCC[C@H](c2ccc(Nc3ncc(Br)c(NCc4cccc5c4C(C)(C)C(=O)N5)n3)c(C)c2)C1 [Example I-363]
3 nM | < 50 nM | CCc1cc(C2CCN(CCOC)CC2)ccc1Nc1ncc(Br)c(NCc2cccc3c2C(C)(C)C(=O)N3)n1 [Example I-367]
